Numbers after ± are expanded uncertainties.
Experiment: xn = mol fraction of the nth substance listed
Details: Liquid, Vibrating tube method

COc1cc2c(cc1O)CC1c3c(cc(O)c(OC)c3-2)CCN1C (stereo not given) [boldine] + CCCO
Details	mass density [kg/m3]
313.15 K, 12000 kPa, x1 = 0.0112	816.58 ± 0.74
313.15 K, 13000 kPa, x1 = 0.0018	800.62 ± 0.92
313.15 K, 13000 kPa, x1 = 0.0077	810.64 ± 0.7
313.15 K, 13000 kPa, x1 = 0.0112	817.36 ± 0.74
313.15 K, 14000 kPa, x1 = 0.0018	801.41 ± 0.92
313.15 K, 14000 kPa, x1 = 0.0077	811.41 ± 0.7
313.15 K, 14000 kPa, x1 = 0.0112	818.14 ± 0.74
313.15 K, 15000 kPa, x1 = 0.0018	802.19 ± 0.92
313.15 K, 15000 kPa, x1 = 0.0077	812.18 ± 0.7
313.15 K, 15000 kPa, x1 = 0.0112	818.89 ± 0.74
313.15 K, 16000 kPa, x1 = 0.0018	802.95 ± 0.92
313.15 K, 16000 kPa, x1 = 0.0077	812.94 ± 0.71
313.15 K, 16000 kPa, x1 = 0.0112	819.65 ± 0.75
313.15 K, 17000 kPa, x1 = 0.0018	803.72 ± 0.93
313.15 K, 17000 kPa, x1 = 0.0077	813.69 ± 0.71
313.15 K, 17000 kPa, x1 = 0.0112	820.39 ± 0.75
313.15 K, 18000 kPa, x1 = 0.0018	804.46 ± 0.93
313.15 K, 18000 kPa, x1 = 0.0077	814.42 ± 0.71
313.15 K, 18000 kPa, x1 = 0.0112	821.12 ± 0.75
313.15 K, 19000 kPa, x1 = 0.0018	805.19 ± 0.93
313.15 K, 19000 kPa, x1 = 0.0077	815.14 ± 0.72
313.15 K, 19000 kPa, x1 = 0.0112	821.85 ± 0.75
313.15 K, 20000 kPa, x1 = 0.0018	805.9 ± 0.93
313.15 K, 20000 kPa, x1 = 0.0077	815.85 ± 0.72
313.15 K, 20000 kPa, x1 = 0.0112	822.53 ± 0.75
323.1 K, 1000 kPa, x1 = 0.0018	782.67 ± 0.93
323.1 K, 2000 kPa, x1 = 0.0018	783.52 ± 0.93
323.1 K, 3000 kPa, x1 = 0.0018	784.36 ± 0.93
323.1 K, 4000 kPa, x1 = 0.0018	785.2 ± 0.93
323.1 K, 5000 kPa, x1 = 0.0018	786.06 ± 0.93
323.1 K, 6000 kPa, x1 = 0.0018	786.91 ± 0.93
323.1 K, 7000 kPa, x1 = 0.0018	787.78 ± 0.93
323.1 K, 8000 kPa, x1 = 0.0018	788.64 ± 0.93
323.1 K, 9000 kPa, x1 = 0.0018	789.49 ± 0.94
323.1 K, 10000 kPa, x1 = 0.0018	790.35 ± 0.94
323.1 K, 11000 kPa, x1 = 0.0018	791.2 ± 0.94
323.1 K, 12000 kPa, x1 = 0.0018	792.05 ± 0.94
323.1 K, 13000 kPa, x1 = 0.0018	792.88 ± 0.94
323.1 K, 14000 kPa, x1 = 0.0018	793.69 ± 0.94
323.1 K, 15000 kPa, x1 = 0.0018	794.51 ± 0.95
323.1 K, 16000 kPa, x1 = 0.0018	795.32 ± 0.95
323.1 K, 17000 kPa, x1 = 0.0018	796.1 ± 0.95
323.1 K, 18000 kPa, x1 = 0.0018	796.89 ± 0.95
323.1 K, 19000 kPa, x1 = 0.0018	797.65 ± 0.95
323.1 K, 20000 kPa, x1 = 0.0018	798.39 ± 0.96
323.11 K, 1000 kPa, x1 = 0.0112	799.52 ± 0.72
323.11 K, 1000 kPa, x1 = 0.0142	804.17 ± 0.62
323.11 K, 2000 kPa, x1 = 0.0112	800.32 ± 0.72
323.11 K, 2000 kPa, x1 = 0.0142	804.99 ± 0.63
323.11 K, 3000 kPa, x1 = 0.0112	801.16 ± 0.72
323.11 K, 3000 kPa, x1 = 0.0142	805.81 ± 0.63
323.11 K, 4000 kPa, x1 = 0.0112	801.99 ± 0.73
323.11 K, 4000 kPa, x1 = 0.0142	806.63 ± 0.64
323.11 K, 5000 kPa, x1 = 0.0112	802.82 ± 0.73
323.11 K, 5000 kPa, x1 = 0.0142	807.51 ± 0.64
323.11 K, 6000 kPa, x1 = 0.0112	803.66 ± 0.73
323.11 K, 6000 kPa, x1 = 0.0142	808.3 ± 0.64
323.11 K, 7000 kPa, x1 = 0.0112	804.52 ± 0.73
323.11 K, 7000 kPa, x1 = 0.0142	809.14 ± 0.64
323.11 K, 8000 kPa, x1 = 0.0112	805.34 ± 0.73
323.11 K, 8000 kPa, x1 = 0.0142	809.97 ± 0.65
323.11 K, 9000 kPa, x1 = 0.0112	806.15 ± 0.74
323.11 K, 9000 kPa, x1 = 0.0142	810.81 ± 0.65
323.11 K, 10000 kPa, x1 = 0.0112	807.01 ± 0.74
323.11 K, 10000 kPa, x1 = 0.0142	811.64 ± 0.65
323.11 K, 11000 kPa, x1 = 0.0112	807.85 ± 0.74
323.11 K, 11000 kPa, x1 = 0.0142	812.47 ± 0.65
323.11 K, 12000 kPa, x1 = 0.0112	808.67 ± 0.74
323.11 K, 12000 kPa, x1 = 0.0142	813.28 ± 0.66
323.11 K, 13000 kPa, x1 = 0.0112	809.47 ± 0.74
323.11 K, 13000 kPa, x1 = 0.0142	814.1 ± 0.66
323.11 K, 14000 kPa, x1 = 0.0112	810.29 ± 0.75
323.11 K, 14000 kPa, x1 = 0.0142	814.89 ± 0.66
323.11 K, 15000 kPa, x1 = 0.0112	811.07 ± 0.75
323.11 K, 15000 kPa, x1 = 0.0142	815.69 ± 0.67
